Measurements taken from patent US8163778B2 (Hoffmann-LA Roche Inc., priority 2007, dated 2012).

target: T1, human liver FBPase (Homo sapiens, UniProt P09467); assay: FBPase assay (malachite green phosphate release); assay type: biochemical; settings: recombinant human liver FBPase, 50 μM fructose-1,6-bisphosphate
T1 construct: made in house; host or cells: E. coli
T1 sequence (P09467 2-338 limits assumed): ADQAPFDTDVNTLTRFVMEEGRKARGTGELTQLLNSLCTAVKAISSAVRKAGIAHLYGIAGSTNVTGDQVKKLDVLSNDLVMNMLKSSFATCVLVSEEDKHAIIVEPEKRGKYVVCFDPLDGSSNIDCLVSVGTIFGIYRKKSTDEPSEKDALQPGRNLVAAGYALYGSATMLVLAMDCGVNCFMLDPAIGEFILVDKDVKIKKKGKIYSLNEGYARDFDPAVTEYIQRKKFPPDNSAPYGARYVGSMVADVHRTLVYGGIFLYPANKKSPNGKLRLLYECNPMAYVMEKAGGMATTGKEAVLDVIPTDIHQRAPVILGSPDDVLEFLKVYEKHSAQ
Protocol: The following tests were carried out for evaluating the inhibitory activity of the compounds of the present invention against human liver FBPase (Swissprot Data base reference PO9467, entry F16P_HUMAN).
Human liver FBPase cDNA (NM_000507) was purchased from Origene Technologies, Inc, subcloned in a vector for expression in E. Coli., and sequenced. Recombinant human liver FBPase (hlFBPase) was purified according to the following protocol that uses heat denaturation similarly to that described by El-Maghrabi et al. [El-Maghrabi, M. R. et al. “Isolation of a human liver fructose-1,6-bisphosphatase cDNA and expression of the protein in Escherichia coli.” J Biol Chem 268:9466-9472, 1993.]. Briefly, E. coli cells, transiently expressing very high levels of soluble and active human liver FBPase, were suspended in 20 mM Tris-HCl pH 7.5, 1 mM EDTA, 1 mM DTT and were lysed by French press. The soluble extract was heat denatured at 65° C. for 5 min, and insoluble, denatured proteins were removed by centrifugation. The extract was then applied to a BioRad Macro-Prep High Q column equilibrated with 20 mM Tris-HCl pH 7.5, 1 mM EDTA, 1 mM DTT and the flow-through (containing FBPase activity) was collected and applied to a BioRad Macro-Prep HS column equilibrated with 20 mM HEPES pH 7.2, 1 mM DTT. A gradient of increasing NaCl concentration was then applied to the HS column and fractions were collected. Fractions containing active FBPase were pooled and further purified by size exclusion chromatography on a Sephacryl S200 column equilibrated in 20 mM Tris-HCl pH 7.5, 150 mM NaCl, 1 mM EDTA, 1 mM DTT. Purity of the enzyme preparation was >90% as assessed by Mass spectrometry.
Recombinant human liver FBPase (hlFBPase) activity was assayed through measuring the inorganic phosphate release that results from the hydrolysis of Fructose-1,6-bisphosphate by the enzyme. As described by Baykov A. A. et al. in [Baykov A. A et al., “Malachite Green procedure for orthophosphate determination and its use in alkaline phosphatase-based enzyme immunoassays”. Anal. Biochem., 171:266-270, 1988], inorganic phosphate can be readily quantified by spectrophotometry at 620 nm after complexation with ammonium molybdate/malachite green reagent. Enzymatic reaction was carried out with modifications of the procedure described by Wright S. W. et al. [Wright S. W. et al., “Anilinoquinazoline inhibitors of Fructose-1,6-bisphosphatase bind to a novel allosteric site: synthesis, in vitro characterization, and X-ray crystallography”. J. Med. Chem. 45:3865-3877, 2002]. Specifically, the reaction was carried out in 96 well plates in a final volume of 100 μl in the presence or in the absence of allosteric inhibitors. Reaction was started adding 25 ng of hlFBPase to the reaction mixture containing 50 mM HEPES-KOH buffer pH 7.2, 2 mM MgCl2, 2 mM EDTA, 1 mM DTT, 50 μM fructose-1,6-bisphosphate and 1% DMSO. After 50 minutes incubation at room temperature, the phosphate released was allowed to form a colored complex for 10 min by adding 150 μl of ammonium molybdate/malachite green reagent containing 0.03% malachite green, 0.2% ammonium molybdate, 0.05% Triton X-100 and 0.7 M H2SO4 in water that was stirred for 30 min at room temperature and filtered through 0.2 μm filter. Under these conditions, the assay was linear with time and able to detect FBPase inhibition after spectrophotometric read-out at 620 nm.

SMILES	IC50 [nM]
CNC(=O)Nc1cc(OC)cc(NC(=O)NS(=O)(=O)c2cc3cc(C)ccc3s2)n1 [Compound 7, N-({4-Methoxy-6-[(methylcarbamoyl)amino]pyridin-2-yl}carbamoyl)-5-methyl-1-benzothiophene-2-sulfonamide]	100
COCCc1sc(S(=O)(=O)NC(=O)Nc2cc(C(F)(F)F)cc(N)n2)cc1C [Compound 85, N-{[6-Amino-4-(trifluoromethyl)pyridin-2-yl]carbamoyl}-5-(2-methoxyethyl)-4-methylthiophene-2-sulfonamide]	756
O=C(Nc1cc(Br)cc(NC(=O)NS(=O)(=O)c2cccc(Cl)c2)n1)NS(=O)(=O)c1cccc(Cl)c1 [Compound 67, N,N′-[(4-Bromopyridine-2,6-diyl)bis(iminocarbonyl)]bis(3-chlorobenzenesulfonamide)]	2510
Nc1cc(Br)cc(NC(=O)NS(=O)(=O)c2coc3ccc(Br)cc23)n1 [Compound 83, N-[(6-Amino-4-bromopyridin-2-yl)carbamoyl]-5-bromo-1-benzofuran-3-sulfonamide]	5230
COCCc1sc(S(=O)(=O)NC(=O)Nc2cc(Br)cc(NCC(F)F)n2)cc1Cl [Compound 15, N-({4-Bromo-6-[(2,2-difluoroethyl)amino]pyridin-2-yl}carbamoyl)-4-chloro-5-(2-methoxyethyl)thiophene-2-sulfonamide]	175
CSc1cc(N)nc(NC(=O)NS(=O)(=O)c2coc3ccc(Br)cc23)c1 [Compound 87, N-{[6-Amino-4-(methylthio)pyridin-2-yl]carbamoyl}-5-bromo-1-benzofuran-3-sulfonamide]	4760
Cc1cccc(S(=O)(=O)NC(=O)Nc2cc(Br)ccn2)c1 [Compound 60, N-[(4-Bromopyridin-2-yl)carbamoyl]-3-methylbenzenesulfonamide]	2070
CNC(=O)Nc1cc(OC)cc(NC(=O)NS(=O)(=O)c2cc3cc(OC)ccc3s2)n1 [Compound 13, 5-Methoxy-N-({4-methoxy-6-[(methylcarbamoyl)amino]pyridin-2-yl}carbamoyl)-1-benzothiophene-2-sulfonamide]	148
CC(=O)OCCc1sc(S(=O)(=O)NC(=O)Nc2cc(C(F)(F)F)c(F)c(N)n2)cc1C [Compound 81, 2-{5-[({[6-Amino-5-fluoro-4-(trifluoromethyl)pyridin-2-yl]carbamoyl}amino)sulfonyl]-3-methyl-2-thienyl}ethyl acetate]	665
CNC(=O)Nc1cc(OC)cc(NC(=O)NS(=O)(=O)c2cccc(C)c2)n1 [Compound 27, N-({4-Methoxy-6-[(methylcarbamoyl)amino]pyridin-2-yl}carbamoyl)-3-methylbenzenesulfonamide]	351
COCCc1sc(S(=O)(=O)NC(=O)Nc2cc(C(N)=NO)cc(N)n2)cc1C [Compound 108, 2-Amino-N′-hydroxy-6-[({[5-(2-methoxyethyl)-4-methyl-2-thienyl]sulfonyl}carbamoyl)amino]pyridine-4-carboximidamide]	16000
COCCc1sc(S(=O)(=O)NC(=O)Nc2cc(Br)cc(NCC(F)F)n2)cc1C [Compound 19, N-({4-Bromo-6-[(2,2-difluoroethyl)amino]pyridin-2-yl}carbamoyl)-5-(2-methoxyethyl)-4-methylthiophene-2-sulfonamide]	201

More lines, now with the values ahead:

IC50 [nM]	SMILES
5700	CNC(=O)Nc1cc(C(=O)NC)cc(NC(=O)NS(=O)(=O)c2cc(C)c(CCOC)s2)n1 [Compound 103, 2-[({[5-(2-Methoxyethyl)-4-methyl-2-thienyl]sulfonyl}carbamoyl)amino]-N-methyl-6-[(methylcarbamoyl)amino]isonicotinamide]
494	CCOc1cc(NC(=O)NC)nc(NC(=O)NS(=O)(=O)c2cc(C)c(CCOC)s2)c1 [Compound 35, N-({4-Ethoxy-6-[(methylcarbamoyl)amino]pyridin-2-yl}carbamoyl)-5-(2-methoxyethyl)-4-methylthiophene-2-sulfonamide]
1870	CNC(=O)Nc1cc(-c2noc(C)n2)cc(NC(=O)NS(=O)(=O)c2cc(C)c(CCOC)s2)n1 [Compound 109, 5-(2-Methoxyethyl)-4-methyl-N-({6-[(methylcarbamoyl)amino]-4-(5-methyl-1,2,4-oxadiazol-3-yl)pyridin-2-yl}carbamoyl)thiophene-2-sulfonamide]
433	COCCc1sc(S(=O)(=O)NC(=O)Nc2cc(SC)cc(N)n2)cc1C [Compound 32, N-{[6-Amino-4-(methylthio)pyridin-2-yl]carbamoyl}-5-(2-methoxyethyl)-4-methylthiophene-2-sulfonamide]
800	COCCc1sc(S(=O)(=O)NC(=O)Nc2cc(SC)cc(C(N)=O)n2)cc1C [Compound 112, 6-[({[5-(2-Methoxyethyl)-4-methyl-2-thienyl]sulfonyl}carbamoyl)amino]-4-(methylthio)pyridine-2-carboxamide]
3410	CCOC(=O)c1cc(N)nc(NC(=O)NS(=O)(=O)c2cc(C)c(CCOC)s2)c1 [Compound 100, Ethyl-2-amino-6-[({[5-(2-methoxyethyl)-4-methyl-2 thienyl]sulfonyl}carbamoyl)amino]isonicotinate]
428	COCCc1sc(S(=O)(=O)NC(=O)Nc2cc(OC)cc(N)n2)cc1C [Compound 30, N-[(6-Amino-4-methoxypyridin-2-yl)carbamoyl]-5-(2-methoxyethyl)-4-methylthiophene-2-sulfonamide]
840	CNC(=O)c1cc(SC)cc(NC(=O)NS(=O)(=O)c2cc(C)c(CCOC)s2)n1 [Compound 113, 6-[({[5-(2-Methoxyethyl)-4-methyl-2-thienyl]sulfonyl}carbamoyl)amino]-N-methyl-4-(methylthio)pyridine-2-carboxamide]
5080	COCCc1sc(S(=O)(=O)NC(=O)Nc2cc([S+](C)[O-])cc(NC(N)=O)n2)cc1C (stereo not shown) [Compound 95, N-{[6-(Carbamoylamino)-4-(methylsulfinyl)pyridin-2-yl]carbamoyl}-5-(2-methoxyethyl)-4-methylthiophene-2-sulfonamide]
55400	COCCc1sc(S(=O)(=O)NC(=O)Nc2cc(SC)cc(C(=O)O)n2)cc1C [Compound 88, Sodium-6-[({[5-(2-methoxyethyl)-4-methyl-2-thienyl]sulfonyl}carbamoyl)amino]-4-(methylthio)pyridine-2-carboxylate]
2160	COCCc1sc(S(=O)(=O)NC(=O)Nc2cc(C(F)(F)F)cc(C(=O)OC)n2)cc1C [Compound 91, Methyl-6-[({[5-(2-methoxyethyl)-4-methyl-2-thienyl]sulfonyl}carbamoyl)amino]-4-(trifluoromethyl)pyridine-2-carboxylate]
185	CNC(=S)Nc1cc(OC)cc(NC(=O)NS(=O)(=O)c2cc(C)c(CCOC)s2)n1 [Compound 18, 5-(2-Methoxyethyl)-N-[(4-methoxy-6-{[(methylamino)carbonothioyl]amino}pyridin-2-yl)carbamoyl]-4-methylthiophene-2-sulfonamide]
2030	COCCc1sc(S(=O)(=O)NC(=O)Nc2cc(OC)cc(NC(=O)N(C)C)n2)cc1C [Compound 59, N-({6-[(Dimethylcarbamoyl)amino]-4-methoxypyridin-2-yl}carbamoyl)-5-(2-methoxyethyl)-4-methylthiophene-2-sulfonamide]
